In patent US11845740B2, “Glutaminyl cyclase inhibitors and the use thereof in treatment of various diseases” (OBSCHESTVO S OGRANICHENNOI OTVETSTVENNOSTIYU …, priority 2017, dated 2023) one finds IC50 and Ki data, which are given here for one compound.

The test deals with recombinant intracellular human glutaminyl cyclase (Homo sapiens (Human), UniProt Q9NXS2). Kind of test: Enzymatic activity of human glutaminyl cyclase in vitro (fluorescent substrate Gln-bNA). It counts as biochemical. The settings on record: 25° C., 50 μM Gln-bNA, pH 8.0.
Chain of recombinant intracellular human glutaminyl cyclase (Q9NXS2 whole entry): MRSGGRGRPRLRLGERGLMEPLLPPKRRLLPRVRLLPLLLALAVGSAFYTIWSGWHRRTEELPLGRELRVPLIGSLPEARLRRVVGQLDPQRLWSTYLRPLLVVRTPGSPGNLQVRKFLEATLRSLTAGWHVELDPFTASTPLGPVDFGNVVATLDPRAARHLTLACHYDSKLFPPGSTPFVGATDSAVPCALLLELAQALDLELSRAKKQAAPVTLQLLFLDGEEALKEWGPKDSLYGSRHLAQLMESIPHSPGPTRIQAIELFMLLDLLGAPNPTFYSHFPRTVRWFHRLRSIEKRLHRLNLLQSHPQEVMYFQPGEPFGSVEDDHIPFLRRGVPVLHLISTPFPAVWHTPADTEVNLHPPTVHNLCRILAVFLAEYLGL

Procedure: The reaction mixture having a volume of 100-μl has contained 50 μM of fluorogenic substrate; ˜0.2 units of human pyroglutaminyl aminopeptidase (1 unit is defined as an amount hydrolyzing 1 micromole of pGlu-bNA per minute), and an aliquot of the recombinant intracellular human glutaminyl cyclase (gQC) in 50 mM trisaminomethane-HCl and 5% glycerol, a pH is 8.0.
The further course of the reaction was monitored spectrophotometrically (the wavelength of the excitation and emission were 320 and 410 nm). The enzyme activity was determined by an amount of the released 2-naphthyl amide (bNA), calculated from the calibration curve. The IC50 values were calculated using nonlinear regression of “inhibitor concentration”-“enzymatic activity” curve.

`O=C(NCCc1cnc[nH]1)NCCc1cnc[nH]1` [Compound III, N,N′-bis[2-(1H-imidazol-4-yl)ethyl]carbamide]: the IC50 (usually the midpoint of a concentration-inhibition curve) is 3500 nM and the inhibitory constant (Ki) (commonly the equilibrium dissociation constant of an inhibitor or competing ligand from its target) is 2000 nM.
